# According to US20220267269A1, “COMPOUNDS FOR THE MODULATION OF PROPROTEIN CONVERTASE SUBTILISIN/KEXIN TYPE 9 (PCSK9)” (SRX Cardio, LLC, priority 2019, published 2022):
# Tests used:
# PCSK9 = target: T1, PCSK9 (Homo sapiens, UniProt Q8NBP7); assay: Fluorescent-LDL uptake analysis by flow cytometric analysis; assay type: cell-based
# T1 construct: purchased Cayman Chemical 20631
# Protocol: Cells, such as HuH7, FL83B, or a cell line transfected with a short-hairpin PCSK9 knockdown sequence such as HuH7/shPCSK9 or FL83B/shPCSK9 were plated and cultured at 37° C. for 12-24 h. Culture media was removed and replaced with fresh lipoprotein-depleted culture media supplemented with 5 μg/mL of fluorescently labeled LDL or lipoprotein-depleted culture media supplemented with 5 μg/mL of fluorescently labeled LDL plus a concentration of recombinant PCSK9 (for example 5 μg/mL recombinant PCSK9; Cayman Chemical, Cat. #20631). Examples of fluorescently labeled LDL include: DiI-LDL (Kalen Biomedical), or LDL conjugated to Dylight (e.g., LDL-Dylight 488, or LDL-Dylight 550 (Cayman Chemical, Cat. #10011229)). Lipoprotein-depleted culture media was composed of DMEM (Invitrogen) with 10% lipoprotein-depleted fetal bovine serum (Kalen Biomedical) and supplemented with penicillin-streptomycin (Life Technologies). Cells were dosed with small molecule test compounds at doses ranging from 0 nM to 100 μM, following a protocol adapted from Benjannet et al., “Effects of the prosegment and pH on the activity of PCSK9: evidence for additional processing events” J Biol Chem. 285(52):40965-40978 (2010), which is incorporated by reference in its entirety.
# Following an incubation period of specified length, such as 16 hours, the lipoprotein-depleted media was removed and cells rinsed three times with a rinse solution (Dulbecco's phosphate buffered saline (D-PBS, Life Technologies), supplemented with 0.5% bovine serum albumin (BSA, Sigma) and 1 g/L glucose (Sigma)). The fluid was then removed, and cells are released from the plate using TrypLE Express (Life Technologies) per manufacturer's recommended procedures, such as incubation for 5-10 minutes at 37° C. The TyrpLE-Cell suspension was then transferred to 15 mL conical tubes, volume was increased to 2 mL with D-PBS supplemented with 0.5% BSA, and […], and the tubes were centrifuged at 250×gravity for 10 minutes. Following centrifugation, the supernatant was aspirated and the cell pellet was resuspended in 300 μL PBS and counterstained with 4′,6-diamidino-2-phenylindole (DAPI, Cayman Chemical) as a cell viability marker, other cell viability markers such as 7-aminoactinomycin D (7AAD, Life Technologies) have also been described in the art.
# Cells were analyzed by for both 7AAD (dead cells) and fluorescent LDL in live cells using a flow cytometer per the manufacturer's operating manual. Cells incubated with small molecule compounds that are inhibitors of PCSK9 will be expected to show increased amounts of LDL fluorescence, relative to control (no compound) specimens, and cells incubated with small molecule compounds that are activators of PCSK9 will be expected to show decreased amounts of LDL fluorescence relative to control (no compound) specimens.
# The LDL-uptake EC50 is provided as follows: +++: <0.5 μM; ++: 0.5-1μM; +: >1 μM.
# [1] = In vivo PK in mice (IV and PO); conditions: male, C57BL/6, mouse, plasma
# Protocol: (§1) A representative compound (Compound 1041) was tested for oral bioavailability and efficacy in mice. Male C57BL/6 mice were purchased from Taconic Biosciences (Rensselaer, New York) and housed under standard conditions with the exception of being provided a high fat diet (#TD.90221, Envigo, Madison, Wis.) and water ad libitum. Following 4 weeks of diet acclimation the animals were then dosed with compound or vehicle as control specimens. Compound readily dissolved at 1.5 mg/ml in a 1% Tween-80 aqueous solution with 10-15 minutes sonication. This solution was used at the 1.5 mg/ml concentration for oral (PO) dosing or further diluted with sterile saline for intravenous (IV) dosing.
# Test animals received a single dose at 3 mg/kg by IV or 15 mg/kg by PO while control animals received an equal volume of vehicle control by IV or PO, respectively. Plasma samples were collected at 0.25, […], 1, 2, 3, 6, 8, 24, and 48 hours while liver specimens were collected at 8, 24, and 48 hours and drug concentration were measured by LC-MS/MS per standard protocols.
# In brief, blood was immediately centrifuged, and the resulting plasma was frozen and stored at −80° C. until analysis. […] Compound concentrations were determined by a liquid chromatography-mass tandem spectrometry (LC-MS/MS) per routine method (Quintara Discovery, Hayward, Calif.) following the standard protocol. […]
# Male C57BL/6 mice = assay: Liver panel in high fat diet mice; assay type: in vivo
# Protocol: as §1
# To assess animal health following compound exposure, a liver panel (Test Code #60405) was tested by IDEXX BioAnalytics (North Grafton, Mass.). […] Also of note, AST and ALT levels in the liver panel were elevated in the PO vehicle, which is attributed to the high fat diet used in the study (Envigo, #TD.90221).
# [2] = Dissolution in dosing vehicle; assay type: physicochemical; conditions: 1% Tween-80 aqueous solution, 10-15 minutes sonication
# Protocol: as §1
# [3] = daily 15 mg/kg PO, 72-hour group, versus vehicle control
# T1 sequence (Q8NBP7 153-692): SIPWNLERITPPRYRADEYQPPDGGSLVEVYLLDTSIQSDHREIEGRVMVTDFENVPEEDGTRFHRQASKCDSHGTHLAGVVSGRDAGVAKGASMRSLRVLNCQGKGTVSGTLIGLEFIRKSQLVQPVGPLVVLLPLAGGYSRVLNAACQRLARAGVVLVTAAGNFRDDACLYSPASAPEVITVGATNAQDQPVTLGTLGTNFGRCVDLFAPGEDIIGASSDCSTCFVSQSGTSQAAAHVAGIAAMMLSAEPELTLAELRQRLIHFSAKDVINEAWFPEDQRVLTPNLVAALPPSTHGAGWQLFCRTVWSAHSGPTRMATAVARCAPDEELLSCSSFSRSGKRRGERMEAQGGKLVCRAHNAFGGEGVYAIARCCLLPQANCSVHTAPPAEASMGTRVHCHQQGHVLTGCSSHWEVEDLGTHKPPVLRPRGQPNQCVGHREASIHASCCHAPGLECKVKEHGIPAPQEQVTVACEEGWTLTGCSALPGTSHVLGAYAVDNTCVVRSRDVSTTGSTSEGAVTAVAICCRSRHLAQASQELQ
compound,measurement,setting,value
"Cc1cc(-c2ccc(F)cc2)ccc1C1CCCN(C2CCCC2)C1 (stereo not shown) [Compound 1,041, 1-cyclopentyl-3-(4′-fluoro-3-methyl-[1,1′-biphenyl]-4-yl)piperidine]",EC50,PCSK9,500 to 1000 nM
same,half-life,[1]; IV 3 mg/kg,4.8 h
same,half-life,[1]; PO 15 mg/kg,9.8 h
same,reduction in ALT levels,Male C57BL/6 mice; [3],77.7%
same,reduction in AST levels,Male C57BL/6 mice; [3],72.1%
same,liver panel toxicity,"Male C57BL/6 mice; three daily 15 mg/kg PO doses, 72 hours, versus PO vehicle",no overt toxicity
same,dissolved concentration,[2],≥ 1.5 mg/mL
